Laboratory results: patent US20240279602A1, “METHOD FOR PRODUCING CEREBRAL CORTICAL CELL PREPARATION DERIVED FROM HUMAN PLURIPOTENT STEM CELLS” (Kyoto University, priority 2021, published 2024)

Tested on: human iPS cells (S2WCB1 strain, S2WCB3 strain)
Experiment: Efficiency of cerebral organoid formation after step (1) maintenance culture and induction of differentiation
Type: cell-based
Set-up: Efficiency of cerebral organoid formation (%): concentration or dose not given beside the values
Details: for Efficiency (%) of cerebral organoid formation: -Day 1 to Day 0, evaluated Day 35
Protocol: Step (1) and step (2) were performed according to a scheme illustrated in FIG. 3 or FIG. 5. Maintenance culture of human iPS cells (S2WCB1 strain, S2WCB3 strain) was performed in StemFit culture medium on a 6-well plate coated with iMatrix-511 (feeder-free).
The culture medium was exchanged with: • (1) a culture medium obtained by adding 5 μM SB431542 to StemFit culture medium without solution C (i.e., a bFGF-free culture medium) (FIG. 3); or • (2) Essential 6 culture medium (i.e., a bFGF-free, TGFβ-free culture medium) (FIG. 5), • and adhesion culture was performed for 1 day.
Step (2a) Induction of differentiation into neural cells was performed in a serum-free culture medium by using a method by Sakaguchi et al. (Stem Cell Reports, 13:458-473, 2019. doi: 10.1016/j.stemcr.2019.05.029.). Specifically, human iPS cells cultured in step (1) were dispersed into single cells by enzymatic treatment. The human iPS cells dispersed into single cells were seeded on a non-cell-adhesive 96-well culture plate (PrimeSurface 96 V-bottom plate, manufactured by Sumitomo Bakelite Co., Ltd.) (9,000 cells/well/100 μL), and subjected to suspension culture with Glasgow MEM (GMEM; Thermo Fisher Scientific Inc.) culture medium supplemented with 0.1 mM non-essential amino acids, 1 mM pyruvate, 0.1 mM 2-mercaptoethanol, 20% (v/v) KnockOut (TM) serum replacement, 100 U/mL penicillin, and 100 μg/ml streptomycin (hereinafter, also referred to as 20GMK) with further addition of 5 μM SB431542 (TGFβ signaling inhibitor; Tocris Bioscience) and 3 μM IWR1e (Wnt signaling inhibitor; Calbiochem), at 37° C. under 5% CO2 for 18 days. Culture medium exchange was performed every 3 days. Y-27632 was added to reach 50 μM on Day 0, and not added in the subsequent culture medium exchanges. Through the culture, cell aggregates were eventually obtained.
Step (2b) On Day 18, the cell aggregates obtained were transferred into a 90-mm dish, and subjected to shaking culture with an Orbital Shaker in DMEM/F12/GlutaMAX culture medium supplemented with 1×N2 supplement (Thermo Fisher Scientific Inc.), a chemically defined lipid concentrate (Invitrogen), 0.25 mg/mL fungizone (Gibco), 1% penicillin/streptomycin, and 0.1% amphotericin B at 37° C. under 20% 02 and 5% CO2 from Day 35 to Day 42. Culture medium exchange was performed every 3 to 4 days.
Efficiency (%) of cerebral organoid formation was calculated by the following expression.
In step (1) of the scheme in FIG. 3, culture was performed with a culture medium supplemented with any additive below during a period of −Day 1 to Day 0, induction of differentiation into neural cells was performed on Day 0, and the efficiencies of cerebral organoid formation were evaluated on Day 35. […] In FIG. 7, “None” indicates the absence of an additive.
Under the experimental system with (1) “bFGF-free-and-SB431542-supplemented culture medium”, which was obtained by adding 5 μM SB431542 to StemFit culture medium without solution C, in Example 1, periods for culture of iPS cells with “bFGF-free-and-SB431542-supplemented culture medium” were set as in a table below.

[1] = step (1) in bFGF-containing culture medium (StemFit with solution C)
[2] = step (1) in bFGF-free culture medium (StemFit without solution C)

NC(=O)c1ccc(-c2nc(-c3ccc4c(c3)OCO4)c(-c3ccccn3)[nH]2)cc1 [SB431542, 4-[4-(1,3-benzodioxol-5-yl)-5-(2-pyridinyl)-1H-imidazol-2-yl]-benzamide]
Efficiency of cerebral organoid formation (%) (step (1) in Essential 6 (E6) culture medium supplemented with SB431542): 56.9% | Efficiency (%) of cerebral organoid formation [1]: less than 5% | Efficiency (%) of cerebral organoid formation (step (1) in bFGF-containing culture medium (StemFit with solution C), listed as SB-431542): <5% | Efficiency (%) of cerebral organoid formation [2]: high efficiency

O=C(Nc1cccc2cccnc12)c1ccc(N2C(=O)[C@@H]3[C@H](C2=O)[C@@H]2C=C[C@H]3C2)cc1 [IWR1e, 4-[(3aR,4S,7R,7aS)-1,3,3a,4,7,7a-hexahydro-1,3-dioxo-4,7-methano-2H-isoindol-2-yl]-N-8-quinolinyl-benzamide]
structure of cell culture on Day 35 (immunostaining) (additive in bFGF-free culture medium in step (1) (Exp. F)): no cerebral cortex-like structure was formed | Efficiency (%) of cerebral organoid formation [1]: <1% | Efficiency (%) of cerebral organoid formation [2]: <5%

c1ccc2c(-c3cnn4cc(-c5ccc(N6CCNCC6)cc5)cnc34)ccnc2c1 [LDN-193189]
Efficiency (%) of cerebral organoid formation [2]: <5%
